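48-hour exposure; five concentrations; linearly interpolated endpoints. GI50: concentration for 50% inhibition of growth.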 Calls of active or inactive are those of the source. No stated cut-off is given here; in the data, active = GI50 up to about 1.1 µM and inactive = higher.
Columns and labels:
Assay in all cases: NCI tumour cell line growth inhibition, 48 h
[1] = tested on: A549
[2] = tested on: DU-145
[3] = tested on: HOP-62
[4] = tested on: HT-29
[5] = tested on: Hs-578T
[6] = tested on: IGROV-1
[7] = tested on: MDA-MB-435
[8] = tested on: MOLT-4
[9] = tested on: NCI-H226
[10] = tested on: NCI-H23
[11] = tested on: NCI-H460
[12] = tested on: OVCAR-5
[13] = tested on: OVCAR-8
[14] = tested on: SF-295
[15] = tested on: SF-539
[16] = tested on: SNB-75
[17] = tested on: T47D
[18] = tested on: TK-10
[19] = tested on: UACC-257
[20] = tested on: A498

Row | Structure (SMILES) | GI50 [1] | GI50 [2] | GI50 [3] | GI50 [4] | GI50 [5] | GI50 [6] | GI50 [7] | GI50 [8] | GI50 [9] | GI50 [10] | GI50 [11] | GI50 [12] | GI50 [13] | GI50 [14] | GI50 [15] | GI50 [16] | GI50 [17] | GI50 [18] | GI50 [19] | GI50 [20]
1 | CC1(C)C2CC(O)C1(C)CC2=O (stereo not drawn) | > 100 µM (inactive) | > 100 µM (inactive) | > 100 µM (inactive) | > 100 µM (inactive) | > 100 µM (inactive) | > 100 µM (inactive) | > 100 µM (inactive) | > 100 µM (inactive) | > 100 µM (inactive) | > 100 µM (inactive) | > 100 µM (inactive) | > 100 µM (inactive) | > 100 µM (inactive) | > 100 µM (inactive) | > 100 µM (inactive) | > 100 µM (inactive) | > 100 µM (inactive) | > 100 µM (inactive) | > 100 µM (inactive) | –
2 | O=C(NCCN1CCOCC1)c1ccc(I)cc1 | > 100 µM (inactive) | – | – | > 100 µM (inactive) | > 100 µM (inactive) | > 100 µM (inactive) | – | > 100 µM (inactive) | > 100 µM (inactive) | > 100 µM (inactive) | > 100 µM (inactive) | > 100 µM (inactive) | > 100 µM (inactive) | – | > 100 µM (inactive) | > 100 µM (inactive) | – | > 100 µM (inactive) | – | > 100 µM (inactive)
3 | CCc1c(C)c(C#N)c(=S)n(C2OC(CO)C(O)C(O)C2O)c1C (stereo not drawn) | > 100 µM (inactive) | > 100 µM (inactive) | > 100 µM (inactive) | > 100 µM (inactive) | – | > 100 µM (inactive) | > 100 µM (inactive) | > 100 µM (inactive) | > 100 µM (inactive) | > 100 µM (inactive) | > 100 µM (inactive) | > 100 µM (inactive) | > 100 µM (inactive) | > 100 µM (inactive) | > 100 µM (inactive) | 65.2 µM (inactive) | > 100 µM (inactive) | > 100 µM (inactive) | > 100 µM (inactive) | > 100 µM (inactive)
4 | CCOC(=O)CC(=O)Nc1c(C(=O)OCC)sc2nc(SC)nc(Nc3ccc(OC)c(OC)c3)c12 | 0.36 µM (active) | 39.7 µM (inactive) | – | 60.1 µM (inactive) | 7.73 µM (inactive) | 28.7 µM (inactive) | > 100 µM (inactive) | – | 75.2 µM (inactive) | 19.1 µM (inactive) | – | 52.6 µM (inactive) | 34.4 µM (inactive) | 7.59 µM (inactive) | 9.86 µM (inactive) | 1.99 µM (inactive) | – | 17.8 µM (inactive) | > 100 µM (inactive) | 28.9 µM (inactive)
5 | COC(=O)CNC(=O)C(CSC(=O)OCC1c2ccccc2-c2ccccc21)NC(=O)CCC(NC(=O)OCC1c2ccccc2-c2ccccc21)C(=O)OC (stereo not drawn) | 14.5 µM (inactive) | > 100 µM (inactive) | 21.1 µM (inactive) | – | 28.4 µM (inactive) | 17.8 µM (inactive) | 25.7 µM (inactive) | 21.2 µM (inactive) | 99.1 µM (inactive) | 17.5 µM (inactive) | 24.4 µM (inactive) | 25.6 µM (inactive) | 16.8 µM (inactive) | 17.4 µM (inactive) | 19.2 µM (inactive) | – | – | 36.7 µM (inactive) | 32.5 µM (inactive) | –
6 | COc1cccc(CC2C(=O)N/C(=N\C(C)=O)N2C)c1OC(C)=O (stereo not drawn) | > 100 µM (inactive) | > 100 µM (inactive) | > 100 µM (inactive) | > 100 µM (inactive) | > 100 µM (inactive) | > 100 µM (inactive) | > 100 µM (inactive) | > 100 µM (inactive) | > 100 µM (inactive) | > 100 µM (inactive) | > 100 µM (inactive) | > 100 µM (inactive) | > 100 µM (inactive) | > 100 µM (inactive) | > 100 µM (inactive) | > 100 µM (inactive) | – | > 100 µM (inactive) | > 100 µM (inactive) | –
7 | c1ccc(-c2cc(-c3ccncc3)cc(-c3ccncc3)n2)cc1 | > 100 µM (inactive) | > 100 µM (inactive) | 33.3 µM (inactive) | > 100 µM (inactive) | 38.5 µM (inactive) | > 100 µM (inactive) | > 100 µM (inactive) | > 100 µM (inactive) | > 100 µM (inactive) | > 100 µM (inactive) | – | > 100 µM (inactive) | > 100 µM (inactive) | 62.2 µM (inactive) | – | 29 µM (inactive) | > 100 µM (inactive) | > 100 µM (inactive) | > 100 µM (inactive) | –
8 | Cc1ccc(C(=O)N(C2CCCCC2)C2CCCCC2)cc1/N=N/N(C)C | 13.7 µM (inactive) | > 10 µM (inactive) | 12.3 µM (inactive) | 6.08 µM (inactive) | 21.3 µM (inactive) | 15.6 µM (inactive) | 16.2 µM (inactive) | 14.4 µM (inactive) | 19.7 µM (inactive) | 11.3 µM (inactive) | 15.1 µM (inactive) | 19 µM (inactive) | 8.81 µM (inactive) | 11.4 µM (inactive) | 19.5 µM (inactive) | – | 18 µM (inactive) | 9.82 µM (inactive) | 12.9 µM (inactive) | –
9 | N/C(=N\n1c(=S)[nH]c2ccccc2c1=O)Nn1c(=S)[nH]c2ccccc2c1=O | > 100 µM (inactive) | > 100 µM (inactive) | 36.4 µM (inactive) | – | – | 28.9 µM (inactive) | 36.9 µM (inactive) | 11.4 µM (inactive) | 21.7 µM (inactive) | 23.1 µM (inactive) | 44.1 µM (inactive) | 80.4 µM (inactive) | 28.8 µM (inactive) | > 100 µM (inactive) | 18.9 µM (inactive) | 25.1 µM (inactive) | 23.4 µM (inactive) | > 100 µM (inactive) | > 100 µM (inactive) | > 100 µM (inactive)
10 | CN(C)c1ccc(/C=N\NC(=O)CSCC(=O)N/N=C/c2ccc(N(C)C)cc2)cc1 | 71.9 µM (inactive) | 51.5 µM (inactive) | 62.8 µM (inactive) | 78.5 µM (inactive) | 20.6 µM (inactive) | 19.4 µM (inactive) | 76.6 µM (inactive) | 36.6 µM (inactive) | 34.2 µM (inactive) | 49.9 µM (inactive) | 33.2 µM (inactive) | 60.5 µM (inactive) | 53.7 µM (inactive) | 31.1 µM (inactive) | 37.3 µM (inactive) | 56 µM (inactive) | 23.8 µM (inactive) | > 100 µM (inactive) | > 100 µM (inactive) | –
11 | N=c1[nH]cnc2c1nnn2C1C=CC(COS(N)(=O)=O)C1 (stereo not drawn) | 10.5 µM (inactive) | 7.08 µM (inactive) | 9.91 µM (inactive) | 7.33 µM (inactive) | 1.87 µM (inactive) | 14.4 µM (inactive) | 4.24 µM (inactive) | 15.6 µM (inactive) | 4.43 µM (inactive) | 1.95 µM (inactive) | 6.87 µM (inactive) | 3.37 µM (inactive) | 2.38 µM (inactive) | 16.7 µM (inactive) | 1.85 µM (inactive) | 4.05 µM (inactive) | 3.94 µM (inactive) | 3.18 µM (inactive) | 14.7 µM (inactive) | –
12 | COC(=O)c1ccccc1C1=C([N+](=O)[O-])C(c2ccccc2)C(C#N)=C(N)O1 (stereo not drawn) | > 100 µM (inactive) | 72.1 µM (inactive) | > 100 µM (inactive) | 96.6 µM (inactive) | 18.1 µM (inactive) | > 100 µM (inactive) | 72.8 µM (inactive) | 35 µM (inactive) | > 100 µM (inactive) | 23.4 µM (inactive) | > 100 µM (inactive) | > 100 µM (inactive) | 32.1 µM (inactive) | > 100 µM (inactive) | > 100 µM (inactive) | 96.2 µM (inactive) | 37.7 µM (inactive) | > 100 µM (inactive) | > 100 µM (inactive) | –
13 | Cc1cn([C@@H]2C[C@H](CO)[C@@H]2O)c(=O)[nH]c1=O | > 100 µM (inactive) | > 100 µM (inactive) | > 100 µM (inactive) | > 100 µM (inactive) | > 100 µM (inactive) | > 100 µM (inactive) | > 100 µM (inactive) | > 100 µM (inactive) | > 100 µM (inactive) | > 100 µM (inactive) | > 100 µM (inactive) | > 100 µM (inactive) | > 100 µM (inactive) | > 100 µM (inactive) | > 100 µM (inactive) | > 100 µM (inactive) | – | > 100 µM (inactive) | > 100 µM (inactive) | > 100 µM (inactive)
14 | CCOC(=O)C1(C#N)CC1 | > 100 µM (inactive) | > 100 µM (inactive) | > 100 µM (inactive) | > 100 µM (inactive) | > 100 µM (inactive) | > 100 µM (inactive) | – | > 100 µM (inactive) | > 100 µM (inactive) | > 100 µM (inactive) | > 100 µM (inactive) | > 100 µM (inactive) | > 100 µM (inactive) | > 100 µM (inactive) | > 100 µM (inactive) | > 100 µM (inactive) | > 100 µM (inactive) | > 100 µM (inactive) | > 100 µM (inactive) | –
15 | N#Cc1ccc2[nH]c3c(c2c1)CC(=O)Nc1ccccc1-3 [PAULLONE 2] | > 100 µM (inactive) | – | > 100 µM (inactive) | > 100 µM (inactive) | > 100 µM (inactive) | 99.8 µM (inactive) | > 100 µM (inactive) | > 100 µM (inactive) | > 100 µM (inactive) | > 100 µM (inactive) | > 100 µM (inactive) | > 100 µM (inactive) | > 100 µM (inactive) | > 100 µM (inactive) | > 100 µM (inactive) | > 100 µM (inactive) | > 100 µM (inactive) | > 100 µM (inactive) | > 100 µM (inactive) | > 100 µM (inactive)
